{"source": "patent US20250353855A1", "about": "“HETEROCYCLIC AND HETEROARYL COMPOUNDS FOR TREATING HUNTINGTON'S DISEASE” (PTC THERAPEUTICS, INC., priority 2022, published 2025)", "note": "pIC50: −log10 of the molar value.", "data": [{"system": "Endogenous Huntingtin Protein", "assay": "Endogenous Huntingtin Protein Assay (ELISA-based MSD electrochemiluminescence)", "assay_type": "cell-based", "details": "MSD plates coated with MW1 (expanded polyglutamine) or MAB2166 capture antibody; lysates; read-out: IC50", "procedure": "Compounds of Formula (T) were tested using the Meso Scale Discovery (MSD) Assay provided in International Application No. PCT/US2016/066042, filed on Dec. 11, 2016 and claiming priority to U.S. Provisional Application 62/265,652 filed on Dec. 10, 2015, the entire contents of which are incorporated herein by reference.\nThe Endogenous Huntingtin Protein assay used in Example 1 was developed using the ELISA-based MSD electrochemiluminescence assay platform.\nMeso Scale Discovery (MSD) 96-well or 384-well plates were coated overnight at 4° C. with MW1 (expanded polyglutamine) or MAB2166 monoclonal antibody (for capture) at a concentration of 1 μg/mL in PBS (30 μL per well). Plates were then washed three times with 300 μL wash buffer (0.05% Tween-20 in PBS) and blocked (100 μL blocking buffer; 5% BSA in PBS) for 4-5 hours at room temperature with rotational shaking and then washed three times with wash buffer.\nSamples (25 μL) were transferred to the antibody-coated MSD plate and incubated overnight at 4° C. After removal of the lysates, the plate was washed three times with wash buffer, and 25 μL of #5656S (Cell signaling; rabbit monoclonal) secondary antibody (diluted to 0.25 μg/mL in 0.05% Tween-20 in blocking buffer) was added to each well and incubated with shaking for 1 Hour at room temperature. Following incubation with the secondary antibody, the wells were rinsed with wash buffer after which 25 μL of goat anti-rabbit SULFO TAG secondary detection antibody (required aspect of the MSD system) (diluted to 0.25 μg/mL in 0.05% Tween-20 in blocking buffer) was added to each well and incubated with shaking for 1 hour at room temperature. After rinsing three times with wash buffer, 150 μL of read buffer T with surfactant (MSD) were added to each empty well, and the plate was imaged on a SI 6000 imager (MSD) according to manufacturers' instructions provided for 96- or 384-well plates.", "values": [{"smiles": "Cn1nnc2cc(-c3cc4nnn(C5CC(C)(C)NC6(CC6)C5)c4nn3)c(O)cc21", "note": "(racemic) [Cpd 7, 5-[rac-3-(5,5-dimethyl-4-azaspiro[2.5]octan-7-yl)-3H-[1,2,3]triazolo[4,5-c]pyridazin-6-yl]-1-methyl-1H-benzotriazol-6-ol]", "pIC50": "6.00 to 6.30"}, {"smiles": "Cc1nc2cc(O)c(-c3cc4ncn([C@H]5C[C@@H]6CC[C@@H](N6)[C@H]5F)c4nn3)cc2s1", "note": "(single isomer, unassigned) [Cpd 9, 6-{7-[(1R,2R,3S,5S)-2-fluoro-8-azabicyclo[3.2.1]octan-3-yl]-7H-imidazo[4,5-c]pyridazin-3-yl}-2-methyl-1,3-benzothiazol-5-ol or 6-{7-[(1S,2S,3R,5R)-2-fluoro-8-azabicyclo[3.2.1]octan-3-yl]-7H-imidazo[4,5-c]pyridazin-3-yl}-2-methyl-1,3-benzothiazol-5-ol]", "pIC50": "> 7.00"}, {"smiles": "Cc1nc2cc(O)c(-c3cc4ccn([C@H]5C[C@@H]6CC[C@@H](N6)[C@H]5F)c4nn3)cc2s1", "note": "(single isomer, unassigned) [Cpd 10, 6-{7-[(1R,2R,3S,5S)-2-fluoro-8-azabicyclo[3.2.1]octan-3-yl]-7H-pyrrolo[2,3-c]pyridazin-3-yl}-2-methyl-1,3-benzothiazol-5-ol or 6-{7-[(1S,2S,3R,5R)-2-fluoro-8-azabicyclo[3.2.1]octan-3-yl]-7H-pyrrolo[2,3-c]pyridazin-3-yl}-2-methyl-1,3-benzothiazol-5-ol]", "pIC50": "> 7.00"}, {"smiles": "Cc1nc2cc(O)c(-c3cc4ccn([C@@H]5C[C@H]6CC[C@H](N6)[C@@H]5F)c4nn3)cc2s1", "note": "(single isomer, unassigned) [Cpd 22, 6-{7-[(1S,2S,3R,5R)-2-fluoro-8-azabicyclo[3.2.1]octan-3-yl]-7H-pyrrolo[2,3-c]pyridazin-3-yl}-2-methyl-1,3-benzothiazol-5-ol or 6-{7-[(1R,2R,3S,5S)-2-fluoro-8-azabicyclo[3.2.1]octan-3-yl]-7H-pyrrolo[2,3-c]pyridazin-3-yl}-2-methyl-1,3-benzothiazol-5-ol]", "pIC50": "> 7.00"}, {"smiles": "Cc1nc2cc(-c3cc4ccn([C@@H]5CCNC6(CCC6)[C@@H]5F)c4nn3)c(O)cc2s1", "note": "(single isomer, unassigned) [Cpd 34, 5-{7-[(8R,9R)-9-fluoro-5-azaspiro[3.5]nonan-8-yl]-7H-pyrrolo[2,3-c]pyridazin-3-yl}-2-methyl-1,3-benzothiazol-6-ol or 5-{7-[(8S,9S)-9-fluoro-5-azaspiro[3.5]nonan-8-yl]-7H-pyrrolo[2,3-c]pyridazin-3-yl}-2-methyl-1,3-benzothiazol-6-ol]", "pIC50": "6.30 to 7.00"}, {"smiles": "Cc1nc2cc(O)c(-c3cc4c(nn3)N([C@H]3C[C@@H]5CC[C@@H](N5)[C@H]3F)CC4)cc2s1", "note": "(single isomer, unassigned) [Cpd 58, 6-{7-[(1R,2R,3S,5S)-2-fluoro-8-azabicyclo[3.2.1]octan-3-yl]-6,7-dihydro-5H-pyrrolo[2,3-c]pyridazin-3-yl}-2-methyl-1,3-benzothiazol-5-ol or 6-{7-[(1S,2S,3R,5R)-2-fluoro-8-azabicyclo[3.2.1]octan-3-yl]-6,7-dihydro-5H-pyrrolo[2,3-c]pyridazin-3-yl}-2-methyl-1,3-benzothiazol-5-ol]", "pIC50": "> 7.00"}, {"smiles": "Cc1nc2cc(O)c(-c3cc4c(nn3)N([C@@H]3CC5(CCC5)NC[C@@H]3F)CC4)cc2s1", "note": "(single isomer, unassigned) [Cpd 61, 6-{7-[(7S,8R)-7-fluoro-5-azaspiro[3.5]nonan-8-yl]-6,7-dihydro-5H-pyrrolo[2,3-c]pyridazin-3-yl}-2-methyl-1,3-benzothiazol-5-ol or 6-{7-[(7R,8S)-7-fluoro-5-azaspiro[3.5]nonan-8-yl]-6,7-dihydro-5H-pyrrolo[2,3-c]pyridazin-3-yl}-2-methyl-1,3-benzothiazol-5-ol]", "pIC50": "> 7.00"}, {"smiles": "Cc1nc2cc(O)c(-c3cc4c(nn3)N([C@@H]3CCNC(C)(C)[C@@H]3F)CC4)cc2s1", "note": "(single isomer, unassigned) [Cpd 63, 6-{7-[(3R,4R)-3-fluoro-2,2-dimethylpiperidin-4-yl]-6,7-dihydro-5H-pyrrolo[2,3-c]pyridazin-3-yl}-2-methyl-1,3-benzothiazol-5-ol or 6-{7-[(3S,4S)-3-fluoro-2,2-dimethylpiperidin-4-yl]-6,7-dihydro-5H-pyrrolo[2,3-c]pyridazin-3-yl}-2-methyl-1,3-benzothiazol-5-ol]", "pIC50": "> 7.00"}, {"smiles": "Cc1nc2cc(O)c(-c3cc4c(nn3)N([C@@H]3CCNC(C)(C)[C@@H]3F)CC4)cc2o1", "note": "(single isomer, unassigned) [Cpd 64, 6-{7-[(3R,4R)-3-fluoro-2,2-dimethylpiperidin-4-yl]-6,7-dihydro-5H-pyrrolo[2,3-c]pyridazin-3-yl}-2-methyl-1,3-benzoxazol-5-ol or 6-{7-[(3S,4S)-3-fluoro-2,2-dimethylpiperidin-4-yl]-6,7-dihydro-5H-pyrrolo[2,3-c]pyridazin-3-yl}-2-methyl-1,3-benzoxazol-5-ol]", "pIC50": "> 7.00"}, {"smiles": "Cc1nc2cc(-c3cc4c(nn3)N(C3CCNC5(CCC5)[C@@H]3F)CC4)c(O)cc2s1", "note": "(single isomer, unassigned) [Cpd 74, 5-{7-[(8R,9R)-9-fluoro-5-azaspiro[3.5]nonan-8-yl]-6,7-dihydro-5H-pyrrolo[2,3-c]pyridazin-3-yl}-2-methyl-1,3-benzothiazol-6-ol or 5-{7-[(8S,9S)-9-fluoro-5-azaspiro[3.5]nonan-8-yl]-6,7-dihydro-5H-pyrrolo[2,3-c]pyridazin-3-yl}-2-methyl-1,3-benzothiazol-6-ol]", "pIC50": "> 7.00"}, {"smiles": "Cc1cc(=O)oc2cc(O)c(-c3cc4c(nn3)N([C@@H]3C[C@H]5CC[C@H](N5)[C@@H]3F)CC4)cc12", "note": "(single isomer, unassigned) [Cpd 79, 6-{7-[(1S,2S,3R,5R)-2-fluoro-8-azabicyclo[3.2.1]octan-3-yl]-6,7-dihydro-5H-pyrrolo[2,3-c]pyridazin-3-yl}-7-hydroxy-4-methyl-2H-1-benzopyran-2-one or 6-{7-[(1R,2R,3S,5S)-2-fluoro-8-azabicyclo[3.2.1]octan-3-yl]-6,7-dihydro-5H-pyrrolo[2,3-c]pyridazin-3-yl}-7-hydroxy-4-methyl-2H-1-benzopyran-2-one]", "pIC50": "> 7.00"}, {"smiles": "Cc1cnc2cc(-c3cc4c(nn3)N([C@@H]3C[C@H]5CC[C@H](N5)[C@@H]3F)CC4)c(O)cc2n1", "note": "(single isomer, unassigned) [Cpd 91, 7-{7-[(1S,2S,3R,5R)-2-fluoro-8-azabicyclo[3.2.1]octan-3-yl]-6,7-dihydro-5H-pyrrolo[2,3-c]pyridazin-3-yl}-3-methylquinoxalin-6-ol or 7-{7-[(1R,2R,3S,5S)-2-fluoro-8-azabicyclo[3.2.1]octan-3-yl]-6,7-dihydro-5H-pyrrolo[2,3-c]pyridazin-3-yl}-3-methylquinoxalin-6-ol]", "pIC50": "> 7.00"}, {"smiles": "CC1(C)CC(n2nnc3cc(-c4cc5c(cc4O)C(=O)CC5)nnc32)CC(C)(C)N1", "note": "[Cpd 1, 6-hydroxy-5-[3-(2,2,6,6-tetramethylpiperidin-4-yl)-3H-[1,2,3]triazolo[4,5-c]pyridazin-6-yl]-2,3-dihydro-1H-inden-1-one]", "pIC50": "5.52 to 6.00"}, {"smiles": "CC1(C)CC(n2nnc3cc(-c4cc5cccnc5cc4O)nnc32)CC(C)(C)N1", "note": "[Cpd 2, 6-[3-(2,2,6,6-tetramethylpiperidin-4-yl)-3H-[1,2,3]triazolo[4,5-c]pyridazin-6-yl]quinolin-7-ol]", "pIC50": "5.52 to 6.00"}, {"smiles": "Cc1nc2cc(O)c(-c3cc4ccn([C@H]5CC(C)(C)NC(C)(C)[C@H]5F)c4nn3)cc2o1", "note": "[Cpd 3, 6-{7-[(3S,4S)-3-fluoro-2,2,6,6-tetramethylpiperidin-4-yl]-7H-pyrrolo[2,3-c]pyridazin-3-yl}-2-methyl-1,3-benzoxazol-5-ol]", "pIC50": "> 7.00"}, {"smiles": "Cc1nc2cc(O)c(-c3cc4ccn([C@H]5CC(C)(C)NC(C)(C)[C@H]5F)c4nn3)cc2s1", "note": "[Cpd 4, 6-{7-[(3S,4S)-3-fluoro-2,2,6,6-tetramethylpiperidin-4-yl]-7H-pyrrolo[2,3-c]pyridazin-3-yl}-2-methyl-1,3-benzothiazol-5-ol]", "pIC50": "> 7.00"}, {"smiles": "Cc1cnc2cc(-c3cc4ccn([C@H]5CC(C)(C)NC(C)(C)[C@H]5F)c4nn3)c(O)cc2n1", "note": "[Cpd 5, 7-{7-[(3S,4S)-3-fluoro-2,2,6,6-tetramethylpiperidin-4-yl]-7H-pyrrolo[2,3-c]pyridazin-3-yl}-3-methylquinoxalin-6-ol]", "pIC50": "> 7.00"}, {"smiles": "Cc1nc2cc(-c3cc4ccn([C@H]5CC(C)(C)NC(C)(C)[C@H]5F)c4nn3)c(O)cc2o1", "note": "[Cpd 6, 5-{7-[(3S,4S)-3-fluoro-2,2,6,6-tetramethylpiperidin-4-yl]-7H-pyrrolo[2,3-c]pyridazin-3-yl}-2-methyl-1,3-benzoxazol-6-ol]", "pIC50": "> 7.00"}, {"smiles": "Cc1nc2cc(-c3cc4ccn([C@H]5CC(C)(C)NC(C)(C)[C@H]5F)c4nn3)c(O)cc2s1", "note": "[Cpd 8, 5-{7-[(3S,4S)-3-fluoro-2,2,6,6-tetramethylpiperidin-4-yl]-7H-pyrrolo[2,3-c]pyridazin-3-yl}-2-methyl-1,3-benzothiazol-6-ol]", "pIC50": "> 7.00"}]}]}
